Reference: a melting point compilation (Tetko et al.; mined from patent text by program, amines drawn as free bases though some values may be those of a salt)

SMILES | melting point [°C]
O=c1[nH]c2cc3ccccc3cc2nc1-c1cc(O)c(O)c([N+](=O)[O-])c1 | > 300
CCOC(=O)Cn1c(=O)n(Cc2ccc(Cl)c(Cl)c2)c(=O)c2c(C)c(Cl)sc21 | 141 to 145
CC(=O)Nc1ncc(/C=C/c2ncc(C(C)(C)C)o2)s1 | 275
CCOC(=O)CCc1cn(Cc2cc(OCc3ccccc3)cc(OCc3csc(-c4cnccn4)n3)c2)cc1-c1ccccc1 | 126 to 127
O=c1cc(CCO)c2ccccc2[nH]1 | 213 to 215
Cn1ncc2c1-c1cn[nH]c1CC2 | 180 to 186
CCOC(OCC)c1ncn(CCC(O)(c2ccc(F)cc2F)n2cncn2)n1 (centres undefined) | 85 to 87
CN(C)Cc1cccc(OCCCNc2nc(Cc3ccccc3)n[nH]2)c1 | 140 to 141
O=C(Nc1ccc(-c2cnc(-c3cccc(NC(=O)c4ccccn4)c3)[nH]2)cc1)c1ccccn1 | 205 to 208
COc1cc2c(c(OC(C)=O)c1)C1CCC3(C)C(=O)C(Br)CC3C1CC2 (centres undefined) | 188 to 190
O=C1CNC=Nc2[nH]cnc21 | 260
O=C(Cc1ccccc1C(=O)O)Nc1cccc(/C=C/c2nc(C3CCCCCCC3)cs2)c1 | 180 to 182
C#CCN1CC(=O)NC1=O | 124 to 125
COc1ccc(C(=O)Nc2cc(C(F)(F)F)c(Br)cc2S(N)(=O)=O)cc1 | 321
Cc1oncc1C(=O)c1ccc(Cl)cc1 | 65 to 66
CCOc1ccc2c(Nc3ccc(Cl)cc3F)c(C#N)cnc2c1 | 221 to 224
O=c1[nH]c(=O)n(Cc2ccc(OCCCCCCCCCOc3ccc(Cn4oc(=O)[nH]c4=O)cc3)cc2)o1 | 149 to 151
CC(C)(O)C1(c2onc(-c3ccc(O)cc3)c2-c2ccccc2)CC1 | 212 to 213
CC(C)CC(C(N)=O)N1C(=O)c2ccccc2C1=O (centres undefined) | 173 to 176
COc1cc([N+](=O)[O-])c2nc(N)ccc2c1 | 195 to 197

SMILES | melting point [°C]
CCC1CC(N)=NN1c1ccccc1 (centres undefined) | 123 to 125
CCOc1cc(C)c(Cl)cc1S(N)(=O)=O | 153 to 155
CC(=O)OC1CCC(n2c(Br)nc3cc(Cl)c(Cl)cc32)C1OC(C)=O (centres undefined) | 140 to 146
O=C(NCC1Cc2cc(Cl)c3ccccc3c2O1)OCc1ccccc1 (centres undefined) | 117 to 119
COc1cc(F)ccc1C(=O)NCCN1CCC(n2c(=O)[nH]c3cc(Cl)ccc32)CC1 | 227
CC1CN(C)CC(NC(=O)c2n[nH]c3ccccc23)CN1Cc1ccccc1 (centres undefined) | 164 to 165
Cc1nc(SCc2ccc(C(=O)O)s2)sc1CC(=O)O | 188 to 190
CCCCOCCOc1ccc(-c2ccc3c(c2)C=C(C(=O)Nc2ccc(CCCn4cnnc4)cc2)CCN3CCC)cc1 | 191 to 194
COc1ccc(N2CCN(c3ccc(N4C(=O)C5CCCCN5C4=O)cc3)CC2)cc1 (centres undefined) | 223
COc1ccc(-c2ccc(C(=O)Nc3cc4ncc(CN5CCCC5)cc4cc3F)c(F)c2)cc1 | 174 to 176
Cc1ccc(S(=O)(=O)N2C(C3=NOC(C)N3)CCC2c2ccc(F)cc2)cc1 (centres undefined) | 68
CCCn1c(=O)c2c(nc(/C=C/c3ccc(OC)c4ccccc34)n2C)n(CCC)c1=O | 213 to 214
O=S(=O)(NCCc1ccccc1)c1cccc(-c2cc(-c3nc(-c4ccc(C(F)(F)F)cc4)cc(C(F)(F)F)n3)ccn2)c1 | 201
CCCCNc1cc(C(=O)O)cc(S(N)(=O)=O)c1Oc1ccc(S(N)(=O)=O)cc1 | 265
c1ccc(CNc2nc(-c3ccco3)nc3ccccc23)cc1 | 152 to 154
Cn1c(-c2ccccc2)c(C2=CCC(C(=O)O)(C(=O)O)CC2)c2ccccc21 | 210 to 211
COC(=O)c1ccc(N2CCN(S(C)(=O)=O)CC2)nc1 | 205 to 207
CCCCCCCOc1cc2c(cc1C(=O)c1ccc(C(=O)O)cc1)C(C)(C)CCC2(C)C | 154 to 158
C[C@@H](O)CN1CC(c2cccc(C(F)(F)F)c2)C1 | 81 to 82
